Among the data in PubChem BioAssay (NCI) are TGI values, retold here.

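Dose response: 5 concentrations. Exposure: 48 h. Format: 96-well plates. Endpoint: linear interpolation; highest concentration if not reached. TGI: total growth inhibition.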

Some test systems named below: LOX IMVI melanoma; HCT-15 colon; TK-10 renal; HCT-116 colon; UACC-257 melanoma; NCI/ADR-RES ovarian; HL-60(TB) leukemia; SR leukemia; UACC-62 melanoma; UO-31 renal; MALME-3M melanoma; MCF7 breast.
Common to all, as to experiment: NCI tumour cell line growth inhibition, 48 h

Take `CSC1=C(c2ccc(Cl)cc2)SC(N2CCCCC2)N1c1ccc([N+](=O)[O-])cc1` (stereo not given): the TGI in the experiment on LOX IMVI melanoma was > 100 µM; with HCT-15 colon, 89 µM; in the experiment on TK-10 renal it was > 100 µM; with HCT-116 colon, 62.8 µM; in the experiment on UACC-257 melanoma it was 85.8 µM; in the experiment with NCI/ADR-RES ovarian, 62.3 µM. Further, the TGI was 97.4 µM with HL-60(TB) leukemia; > 100 µM in the experiment on SR leukemia; > 100 µM in the experiment on UACC-62 melanoma; > 100 µM in the experiment on UO-31 renal; > 100 µM with MALME-3M melanoma; > 100 µM in the experiment on MCF7 breast.
Regarding `CNC(=S)N/N=C/c1cccc(C)n1`, the TGI in the experiment on LOX IMVI melanoma is > 73.8 µM; in the experiment on HCT-15 colon, > 100 µM; in the experiment on TK-10 renal, > 100 µM; in the experiment with HCT-116 colon it was > 100 µM; in the experiment on UACC-257 melanoma it was > 100 µM; with NCI/ADR-RES ovarian, 63.3 µM. In addition, the TGI in the experiment with HL-60(TB) leukemia is > 75.9 µM; with SR leukemia, > 78.1 µM; with UACC-62 melanoma it was 56.4 µM; with UO-31 renal, > 100 µM; in the experiment with MALME-3M melanoma, > 100 µM; with MCF7 breast it was > 100 µM.
For the molecule `CC(=O)OCC1=C(C)C(OC(=O)C(OC(C)=O)[C@@H](NC(=O)c2ccccc2)c2ccccc2)CCC1(C)C` (stereo not given in full), the TGI in the experiment on LOX IMVI melanoma, in the experiment on HCT-15 colon, with TK-10 renal, in the experiment on HCT-116 colon, in the experiment on UACC-257 melanoma and in the experiment with NCI/ADR-RES ovarian was > 100 µM throughout. In addition, the TGI in the experiment on HL-60(TB) leukemia, in the experiment on SR leukemia, in the experiment with UACC-62 melanoma, in the experiment with UO-31 renal, in the experiment on MALME-3M melanoma and in the experiment with MCF7 breast was > 100 µM each time.
For `CC1C[C@]2(C)C(=O)N(c3ccccc3)C(=N)[C@@H]2N(C)c2ccccc21` (stereo not given in full), the TGI in the experiment on LOX IMVI melanoma, in the experiment on HCT-15 colon, in the experiment on TK-10 renal, in the experiment on HCT-116 colon, with UACC-257 melanoma and in the experiment with NCI/ADR-RES ovarian was > 100 µM each time. The TGI in the experiment with HL-60(TB) leukemia, in the experiment with SR leukemia, in the experiment on UACC-62 melanoma, with UO-31 renal, in the experiment on MALME-3M melanoma and with MCF7 breast was > 100 µM each time.
`COc1ccc(N=C(Nc2ccc(OC)cc2)C(=Nc2ccc(OC)cc2)Nc2ccc(OC)cc2)cc1`: the TGI with LOX IMVI melanoma, with HCT-15 colon, in the experiment with TK-10 renal, in the experiment on HCT-116 colon, with UACC-257 melanoma and in the experiment with NCI/ADR-RES ovarian was > 100 µM in each case. The TGI in the experiment on HL-60(TB) leukemia, in the experiment with SR leukemia, with UACC-62 melanoma, in the experiment with UO-31 renal, in the experiment with MALME-3M melanoma and in the experiment with MCF7 breast was > 100 µM throughout.
